Reference: patent US20100267637A1, “TREATMENT OF MELANOMA WITH ALPHA THYMOSIN PEPTIDES IN COMBINATION WITH A KINASE INHIBITOR” (SciClone Pharmaceuticals, Inc., priority 2007, published 2010)
Where no end group is shown, it is not given here.

Test system: murine B16 melanoma cells
Assay: Anti-tumor effect: tumor size / tumor volume in mice bearing subcutaneous B16 melanoma
Assay type: in vivo, C57BL/6 mice
Parameters: key to Tumor measurement L (length) / Tumor measurement W (width): The sign “—” indicates that tumor does not reach a measurable size
Conditions: for Tumor Volume (cm^3) (Mean ± SD): group mean; for PI (TV), percent inhibition of tumor volume: vs vehicle
Protocol: The toxic effects of the dosing regimens were also monitored. […] Meanwhile 9H10 was given in two groups via i.p. on Day 3, 6 and 9. […] Tumor volume and body weight were measured every three days, and tumor weights were measured on Day 16 at the end of the study.
As per aseptic tissue culture procedures, one vial of B16 melanoma cells was removed from the liquid nitrogen stock, and placed into a 37° C. water bath. Gentle swirling was conducted until the content of the vial was thawed. Using tissue culture/sterile procedures, the cells were immediately centrifuged with a TD5A-WS centrifuge at 1000 rpm, 20-25° C., 5 min. After centrifugation, the cells were suspended in 0.1 to 0.5 mL normal saline (NS) and subcutaneously injected into 10 mice (0.1 mL/mouse, about 1×10^6 cells). After 7-10 days, when the tumor diameter was approximately 1 cm, the animals were euthanized with CO2 overdose and the tumors excised. The procedure was repeated with 20 mice to generate a sufficient number of B16 melanoma cells with adequate transplantability.
On the day of tumor implantation, approximately 1×10^6 cells in 0.1 mL were subcutaneously injected on the right axillary area of each mouse. The day of tumor implantation was defined as Day 0.
On Day 3, the animals were randomly assigned into nine different weight-matched and tumor-size-matched groups. Dosing was started on Day 3 using the regimen according to Table 2.
From Day 1 to Day 15, mortality and moribundity were checked twice daily, the body weights were recorded once every 3 days, and tumors were measured using a caliper once every 3 days. At the end of the study (Day 16), the animals were euthanized by CO2 asphyxiation, and the tumors were excised and weighed.
Based on the tumor size, the tumor volume (TV) was calculated with the formula: [TV=(Length×Width×Width)/2]. And the percent inhibition (PI) of TV (PITV) was calculated according to the equation below:
PITV(%)=(TV vehicle−TVdrug treated)/TV vehicle×100
Inter-group comparison was performed in terms of tumor volume, tumor weight and body weight, using a student's t test. P values of less than 0.05 were considered to be statistically significant.

Thymosin Alpha-1 (Ac-SDAAVDTSSEITTKDLKEKKEVVEEAEN; ends and bridges not checked; UniProt P06454 2-29, looked up) [TA-1, 28 amino acid peptide, immunomodulator; test article (SciClone), 6 mg/kg s.c. daily]
0.000 ± 0.0002 cm^3: Tumor Volume (cm^3) (Mean ± SD) (Day 3)
0.0005 cm^3: Tumor volume (Day 3, animal F4) | Tumor volume (Day 9, animal F1) | Tumor volume (Day 9, animal F2) | Tumor volume (Day 9, animal F3) | Tumor volume (Day 9, animal M1)
0.0040 cm^3: Tumor volume (Day 9, animal F4)
0.0000 cm^3: Tumor volume (Day 3, animal F1) | Tumor volume (Day 3, animal F2) | Tumor volume (Day 3, animal F3) | Tumor volume (Day 3, animal F5) | Tumor volume (Day 3, animal M1) | Tumor volume (Day 3, animal M2) | Tumor volume (Day 3, animal M3) | Tumor volume (Day 3, animal M4) | Tumor volume (Day 3, animal M5) | Tumor volume (Day 6, animal F1) | Tumor volume (Day 6, animal F2) | Tumor volume (Day 6, animal F3) | Tumor volume (Day 6, animal F4) | Tumor volume (Day 6, animal F5) | Tumor volume (Day 6, animal M1) | Tumor volume (Day 6, animal M2) | Tumor volume (Day 6, animal M3) | Tumor volume (Day 6, animal M4) | Tumor volume (Day 6, animal M5) | Tumor volume (Day 9, animal F5)
0.000 ± 0.0000 cm^3: Tumor Volume (cm^3) (Mean ± SD) (Day 6)
50.00%: PI (TV), percent inhibition of tumor volume (Day 3)
—: Tumor measurement L (length) (Day 3, animal F1) | Tumor measurement W (width) (Day 3, animal F1) | Tumor measurement L (length) (Day 3, animal F2) | Tumor measurement W (width) (Day 3, animal F2) | Tumor measurement L (length) (Day 3, animal F3) | Tumor measurement W (width) (Day 3, animal F3) | Tumor measurement L (length) (Day 3, animal F5) | Tumor measurement W (width) (Day 3, animal F5) | Tumor measurement L (length) (Day 3, animal M1) | Tumor measurement W (width) (Day 3, animal M1) | Tumor measurement L (length) (Day 3, animal M2) | Tumor measurement W (width) (Day 3, animal M2) | Tumor measurement L (length) (Day 3, animal M3) | Tumor measurement W (width) (Day 3, animal M3) | Tumor measurement L (length) (Day 3, animal M4) | Tumor measurement W (width) (Day 3, animal M4) | Tumor measurement L (length) (Day 3, animal M5) | Tumor measurement W (width) (Day 3, animal M5) | Tumor measurement L (length) (Day 6, animal F1) | Tumor measurement W (width) (Day 6, animal F1) | Tumor measurement L (length) (Day 6, animal F2) | Tumor measurement W (width) (Day 6, animal F2) | Tumor measurement L (length) (Day 6, animal F3) | Tumor measurement W (width) (Day 6, animal F3) | Tumor measurement L (length) (Day 6, animal F4) | Tumor measurement W (width) (Day 6, animal F4) | Tumor measurement L (length) (Day 6, animal F5) | Tumor measurement W (width) (Day 6, animal F5) | Tumor measurement L (length) (Day 6, animal M1) | Tumor measurement W (width) (Day 6, animal M1) | Tumor measurement L (length) (Day 6, animal M2) | Tumor measurement W (width) (Day 6, animal M2) | Tumor measurement L (length) (Day 6, animal M3) | Tumor measurement W (width) (Day 6, animal M3) | Tumor measurement L (length) (Day 6, animal M4) | Tumor measurement W (width) (Day 6, animal M4) | Tumor measurement L (length) (Day 6, animal M5) | Tumor measurement W (width) (Day 6, animal M5)
100.00%: PI (TV), percent inhibition of tumor volume (Day 6)
0.20 cm: Tumor measurement L (length) (Day 9, animal F4) | Tumor measurement W (width) (Day 9, animal F4)
0.10 cm: Tumor measurement L (length) (Day 3, animal F4) | Tumor measurement W (width) (Day 3, animal F4) | Tumor measurement L (length) (Day 9, animal F1) | Tumor measurement W (width) (Day 9, animal F1) | Tumor measurement L (length) (Day 9, animal F2) | Tumor measurement W (width) (Day 9, animal F2) | Tumor measurement L (length) (Day 9, animal F3) | Tumor measurement W (width) (Day 9, animal F3) | Tumor measurement L (length) (Day 9, animal M1) | Tumor measurement W (width) (Day 9, animal M1)
